# Source: the supplement of paper PMC10307832
# How the values were obtained:
# Assay in all cases: relative viability (nuclei count vs DMSO), 5 days (fraction); higher = more cells survive
# [1] = tested on: NCI-H2085
# Outline: (§1)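 After 5 days of treatment, lung cancer cells in 1536-well plates were fixed and stained in a single step (final 0.05% Triton X-100, 1% formaldehyde, 1 ug/ml Hoechst) and their nuclei counted on 4× images. Treatment had been applied by pin tool the day after seeding as one drug alone or as a fixed anchor-drug dose with five library-drug doses (not always all listed) in √10 steps. Relative viability is the nuclei count of treated wells divided by that of vehicle wells, and values are medians of duplicate plates.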
# [2] = tested on: EMC-BAC-2
# Outline: as §1
# [3] = tested on: NCI-H1915
# Outline: as §1
# [4] = tested on: NCI-H322M
# Outline: as §1
# [5] = tested on: NCI-H1734
# Outline: as §1
# [6] = tested on: NCI-H647
# Outline: as §1
# [7] = tested on: EPLC-272H
# Outline: as §1
# [8] = tested on: NCI-H2126
# Outline: as §1
# [9] = tested on: NCI-H2347
# Outline: as §1
# [10] = tested on: LXF-289
# Outline: as §1
# [11] = tested on: NCI-H1993
# Outline: as §1
# [12] = tested on: SW 1573
# Outline: as §1
# [13] = tested on: NCI-H2009
# Outline: as §1
# [14] = tested on: NCI-H727
# Outline: as §1
# [15] = tested on: NCI-H1563
# Outline: as §1
# [16] = tested on: H3255
# Outline: as §1
# [17] = tested on: NCI-H661
# Outline: as §1
# [18] = tested on: HOP-62
# Outline: as §1
# [19] = tested on: LCLC-97TM1
# Outline: as §1
# [20] = tested on: NCI-H2023
# Outline: as §1
# [21] = tested on: SK-LU-1
# Outline: as §1
# [22] = tested on: PC-14
# Outline: as §1
smiles,measurement,setting,value
CC(=O)O[C@@]12CO[C@@H]1C[C@H](O)[C@@]1(C)C(=O)[C@H](O)C3=C(C)[C@@H](OC(=O)[C@H](O)[C@@H](NC(=O)OC(C)(C)C)c4ccccc4)C[C@@](O)([C@@H](OC(=O)c4ccccc4)[C@H]21)C3(C)C [Docetaxel] + C[C@]1(O)C[C@@H](c2nc(-c3ccc4ccc(-c5ccccc5)nc4c3)c3c(N)nccn32)C1 [Linsitinib] (partner 1 µM),relative viability,[1]; first compound 0.0002 µM,0.868
same,relative viability,[1]; first compound 0.000632 µM,0.888
same,relative viability,[1]; first compound 0.002 µM,0.652
same,relative viability,[1]; first compound 0.006325 µM,0.576
same,relative viability,[1]; first compound 0.02 µM,0.276
same,relative viability,[2]; first compound 0.0002 µM,0.799
same,relative viability,[2]; first compound 0.000632 µM,0.665
same,relative viability,[2]; first compound 0.002 µM,0.463
same,relative viability,[2]; first compound 0.006325 µM,0.31
same,relative viability,[2]; first compound 0.02 µM,0.207
same,relative viability,[3]; first compound 0.0002 µM,1.07
same,relative viability,[3]; first compound 0.000632 µM,1.06
same,relative viability,[3]; first compound 0.002 µM,0.724
same,relative viability,[3]; first compound 0.006325 µM,0.239
same,relative viability,[3]; first compound 0.02 µM,0.156
same,relative viability,[4]; first compound 0.0002 µM,0.852
same,relative viability,[4]; first compound 0.000632 µM,0.989
same,relative viability,[4]; first compound 0.002 µM,0.878
same,relative viability,[4]; first compound 0.006325 µM,0.547
same,relative viability,[4]; first compound 0.02 µM,0.374
same,relative viability,[5]; first compound 0.0002 µM,0.918
same,relative viability,[5]; first compound 0.000632 µM,0.825
same,relative viability,[5]; first compound 0.002 µM,0.516
same,relative viability,[5]; first compound 0.006325 µM,0.373
same,relative viability,[5]; first compound 0.02 µM,0.235
same,relative viability,[6]; first compound 0.0002 µM,0.966
same,relative viability,[6]; first compound 0.000632 µM,0.623
same,relative viability,[6]; first compound 0.002 µM,0.123
same,relative viability,[6]; first compound 0.006325 µM,0.102
same,relative viability,[6]; first compound 0.02 µM,0.082
same,relative viability,[7]; first compound 0.0002 µM,1.08
same,relative viability,[7]; first compound 0.000632 µM,0.954
same,relative viability,[7]; first compound 0.002 µM,0.54
same,relative viability,[7]; first compound 0.006325 µM,0.126
same,relative viability,[7]; first compound 0.02 µM,0.0815
same,relative viability,[8]; first compound 0.0002 µM,0.747
same,relative viability,[8]; first compound 0.000632 µM,0.683
same,relative viability,[8]; first compound 0.002 µM,0.631
same,relative viability,[8]; first compound 0.006325 µM,0.402
same,relative viability,[8]; first compound 0.02 µM,0.291
same,relative viability,[9]; first compound 0.0002 µM,0.946
same,relative viability,[9]; first compound 0.000632 µM,0.926
same,relative viability,[9]; first compound 0.002 µM,0.839
same,relative viability,[9]; first compound 0.006325 µM,0.622
same,relative viability,[9]; first compound 0.02 µM,0.517
same,relative viability,[10]; first compound 0.0002 µM,0.989
same,relative viability,[10]; first compound 0.000632 µM,0.745
same,relative viability,[10]; first compound 0.002 µM,0.628
same,relative viability,[10]; first compound 0.006325 µM,0.144
same,relative viability,[10]; first compound 0.02 µM,0.106
same,relative viability,[11]; first compound 0.0002 µM,0.796
same,relative viability,[11]; first compound 0.000632 µM,0.739
same,relative viability,[11]; first compound 0.002 µM,0.807
same,relative viability,[11]; first compound 0.006325 µM,0.605
same,relative viability,[11]; first compound 0.02 µM,0.488
same,relative viability,[12]; first compound 0.0002 µM,0.804
same,relative viability,[12]; first compound 0.000632 µM,0.594
same,relative viability,[12]; first compound 0.002 µM,0.279
same,relative viability,[12]; first compound 0.006325 µM,0.276
same,relative viability,[12]; first compound 0.02 µM,0.178
same,relative viability,[13]; first compound 0.0002 µM,1.15
same,relative viability,[13]; first compound 0.000632 µM,1.18
same,relative viability,[13]; first compound 0.002 µM,0.77
same,relative viability,[13]; first compound 0.006325 µM,0.522
same,relative viability,[13]; first compound 0.02 µM,0.187
same,relative viability,[14]; first compound 0.0002 µM,0.384
same,relative viability,[14]; first compound 0.000632 µM,0.307
same,relative viability,[14]; first compound 0.002 µM,0.22
same,relative viability,[14]; first compound 0.006325 µM,0.211
same,relative viability,[14]; first compound 0.02 µM,0.21
same,relative viability,[15]; first compound 0.0002 µM,1.19
same,relative viability,[15]; first compound 0.000632 µM,1.15
same,relative viability,[15]; first compound 0.002 µM,1.05
same,relative viability,[15]; first compound 0.006325 µM,0.988
same,relative viability,[15]; first compound 0.02 µM,0.617
same,relative viability,[16]; first compound 0.0002 µM,0.824
same,relative viability,[16]; first compound 0.000632 µM,0.866
same,relative viability,[16]; first compound 0.002 µM,0.516
same,relative viability,[16]; first compound 0.006325 µM,0.223
same,relative viability,[16]; first compound 0.02 µM,0.209
same,relative viability,[17]; first compound 0.0002 µM,0.593
same,relative viability,[17]; first compound 0.000632 µM,0.683
same,relative viability,[17]; first compound 0.002 µM,0.45
same,relative viability,[17]; first compound 0.006325 µM,0.449
same,relative viability,[17]; first compound 0.02 µM,0.261
same,relative viability,[18]; first compound 0.0002 µM,1.18
same,relative viability,[18]; first compound 0.000632 µM,0.672
same,relative viability,[18]; first compound 0.02 µM,0.128
same,relative viability,[19]; first compound 0.000632 µM,0.153
same,relative viability,[19]; first compound 0.002 µM,0.155
same,relative viability,[19]; first compound 0.006325 µM,0.144
same,relative viability,[19]; first compound 0.02 µM,0.112
same,relative viability,[20]; first compound 0.0002 µM,0.703
same,relative viability,[20]; first compound 0.000632 µM,0.72
same,relative viability,[20]; first compound 0.002 µM,0.144
same,relative viability,[20]; first compound 0.006325 µM,0.159
same,relative viability,[20]; first compound 0.02 µM,0.0739
same,relative viability,[21]; first compound 0.0002 µM,0.899
same,relative viability,[21]; first compound 0.000632 µM,0.437
same,relative viability,[21]; first compound 0.002 µM,0.406
same,relative viability,[21]; first compound 0.006325 µM,0.344
same,relative viability,[21]; first compound 0.02 µM,0.232
same,relative viability,[22]; first compound 0.0002 µM,0.992
same,relative viability,[22]; first compound 0.000632 µM,0.957
same,relative viability,[22]; first compound 0.002 µM,0.606
same,relative viability,[22]; first compound 0.006325 µM,0.152
same,relative viability,[22]; first compound 0.02 µM,0.064
